According to ChEMBL document CHEMBL1145331, “Synthesis of anthranylaldoxime derivatives as estrogen receptor ligands and computational prediction of binding modes” (J Med Chem, 2006):

Columns and labels:
[1] = target: T1, Estrogen receptor (Homo sapiens) (UniProt P03372); assay: Displacement of [3H]estradiol from human ERalpha relative to estradiol
T1 sequence (whole entry): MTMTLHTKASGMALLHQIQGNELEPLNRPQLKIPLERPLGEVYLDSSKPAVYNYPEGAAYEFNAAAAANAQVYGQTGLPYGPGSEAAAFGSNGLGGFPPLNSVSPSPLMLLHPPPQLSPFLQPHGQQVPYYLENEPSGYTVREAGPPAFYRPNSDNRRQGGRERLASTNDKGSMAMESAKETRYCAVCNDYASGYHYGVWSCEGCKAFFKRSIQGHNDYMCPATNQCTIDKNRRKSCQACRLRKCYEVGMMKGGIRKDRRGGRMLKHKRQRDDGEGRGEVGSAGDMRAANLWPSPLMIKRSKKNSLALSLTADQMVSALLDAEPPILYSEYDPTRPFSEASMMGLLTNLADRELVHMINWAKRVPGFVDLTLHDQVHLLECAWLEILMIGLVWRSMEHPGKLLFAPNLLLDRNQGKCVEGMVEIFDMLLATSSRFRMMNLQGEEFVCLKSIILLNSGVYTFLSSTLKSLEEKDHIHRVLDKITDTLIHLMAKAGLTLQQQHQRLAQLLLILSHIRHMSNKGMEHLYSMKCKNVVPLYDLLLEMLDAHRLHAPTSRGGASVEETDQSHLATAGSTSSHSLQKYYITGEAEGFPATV

[2] = target: Estrogen receptor beta (Homo sapiens) (UniProt Q92731); assay: Displacement of [3H]estradiol from human ERbeta relative to estradiol
Chain of Estrogen receptor beta (Homo sapiens) (Q92731 whole entry): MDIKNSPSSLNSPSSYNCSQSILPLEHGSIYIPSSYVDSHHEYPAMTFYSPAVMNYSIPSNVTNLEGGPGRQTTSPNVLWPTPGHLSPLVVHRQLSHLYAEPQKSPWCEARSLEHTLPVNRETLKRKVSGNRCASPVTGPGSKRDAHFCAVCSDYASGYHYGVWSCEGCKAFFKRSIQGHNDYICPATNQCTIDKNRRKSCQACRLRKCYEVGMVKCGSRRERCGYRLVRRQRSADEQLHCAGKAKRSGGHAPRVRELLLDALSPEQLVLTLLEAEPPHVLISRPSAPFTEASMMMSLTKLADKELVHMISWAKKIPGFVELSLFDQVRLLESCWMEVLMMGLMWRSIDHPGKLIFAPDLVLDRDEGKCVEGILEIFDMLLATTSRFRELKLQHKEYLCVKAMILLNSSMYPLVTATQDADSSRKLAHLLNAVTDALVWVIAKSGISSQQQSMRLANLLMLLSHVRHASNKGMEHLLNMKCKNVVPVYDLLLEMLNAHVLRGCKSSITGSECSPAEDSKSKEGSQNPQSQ

[3] = target: T2, Estrogen receptor (Homo sapiens) (UniProt Q92731+P03372); assay: Ratio of RBA for human ERbeta to RBA for human ERalpha; format: protein assay
T2 sequence (Q92731 whole entry, looked up, one chain of several): as the sequence (Q92731 whole entry) above

Estrogen receptor = target: T3, Estrogen receptor (Homo sapiens, UniProt P03372); assay: Displacement of [3H]estradiol from human ERalpha
T3 sequence (P03372 whole entry): T1 sequence (whole entry)

[4] = target: T2, Estrogen receptor (Homo sapiens); assay: Ratio of Kd for human ERalpha to Kd for human ERbeta; format: protein assay
[5] = target: T2, Estrogen receptor (Homo sapiens); assay: Ratio of RBA for human ERalpha to RBA for human ERbeta; format: protein assay

SMILES	relative binding affinity (RBA) [1]	relative binding affinity (RBA) [2]	Selectivity ratio [3]	Kd (Estrogen receptor)	Selectivity ratio [4]	Selectivity ratio [5]
CNc1c(/C=N/O)ccc(-c2ccccc2)c1-c1ccc(O)cc1	1.17	0.72	–	–	–	–
CNc1c(/C=N/O)ccc(-c2ccc(C)cc2)c1-c1ccc(C)cc1	0.95	1.86	2	–	–	–
CNc1c(/C=N/O)ccc(-c2ccc(O)cc2)c1-c1ccccc1	5.38	1.11	–	3.7 nM	–	–
CNc1c(/C=N/O)ccc(-c2ccc(O)cc2)c1-c1ccc(O)cc1	1.96	0.14	–	–	36	–
CNc1c(/C=N/O)ccc(-c2cccc(O)c2)c1-c1cccc(O)c1	0.14	0.05	–	–	–	–
CNc1c(/C=N/O)ccc(-c2cccc(OC)c2)c1-c1cccc(OC)c1	0.65	0.14	–	–	–	–
CNc1c(/C=N/O)ccc(-c2cccc(C)c2)c1-c1cccc(C)c1	3.91	2.13	–	–	–	2
CNc1c(/C=N/O)ccc(-c2ccc(OC)cc2)c1-c1ccc(OC)cc1	2.33	0.47	–	–	–	–
